Test results as given in patent US8926955B2, “Synthesis of polymer conjugates of indolocarbazole compounds” (priority 2008, dated 2015).

Tests used:
[1] = test system: guinea pig; experiment: Photoirritation test in guinea pigs; type: in vivo
Method: The potential of the test item 0.1% cream to cause photoallergic and/or photoirritant reactions following topical application to the skin, in association with exposure to ultraviolet light, was assessed using a guinea pig model.
In the first phase, an assessment of the photoirritant properties of the test item was performed in 6 groups of animals. These were used both to establish suitable concentrations of the test item for use in the sensitisation assay and to provide information on photo-induced irritation. Animals were treated as follows (Table 6):
The photoirritation test was undertaken using 2 (irradiated) groups, each of 5 animals, treated with the control and test items, cream placebo and test item 0.1% cream, respectively (cf. Table 6, groups 1 and 3) and 2 similarly constituted groups (cf. Table 6, groups 2 and 4), treated in the same manner but not irradiated. Aliquots of the undiluted test or control item (100%), 2 concentrations (20% and 50% in purified water) of the test and control items and the vehicle alone (purified water), were spread evenly over defined skin sites prepared on the dorsum of the animals. Animals of the irradiated groups (groups 1 and 3) were exposed to both UVA (10 Joules/cm^2) and UVB (0.1 Joules/cm^2) radiation following dosing. […]

[2] = test system: Chinese hamster ovary cells; experiment: Chromosome aberrations in Chinese hamster ovary cells in vitro (photomutagenicity assay); conditions: 3 hours treatment, absence or presence of ultraviolet light
Method: The test item was assayed for the ability to cause chromosomal damage in Chinese hamster ovary cells, following in vitro treatment in the absence and presence of UVA/UVB irradiation.
Solutions of the test item were prepared in Hank's Balanced Salt Solution (HBSS).
Both in the absence and presence of UV light, the cells were treated for 3 hours and the harvest time of 20 hours, corresponding to approximately 1.5 cell cycle, was used.
The experiment included appropriate negative and positive controls. Two cell cultures were prepared at each test point.
Dose levels were selected for the scoring of chromosomal aberrations on the basis of the cytotoxicity of the test item treatments as determined by the reduction of cell counts at the time of harvesting.
One hundred metaphase spreads were scored for chromosomal aberrations from each culture.

[3] = test system: guinea pig; experiment: Photosensitisation test in guinea pigs; type: in vivo
Method: The second phase of the study was an assessment of sensitisation, in which a total of 5 groups were treated as follows (Table 7):
The photosensitisation test was undertaken using 2 groups of 10 animals (cf. Table 7, groups 8 and 9) induced with the control item and the test item and 1 control group of 10 animals (cf. Table 7, group 7) induced with the selected vehicle (purified water). In an attempt to induce sensitisation, animals were intradermally injected with an emulsion of Freund's complete adjuvant. The test and control items, at 100% concentration, were applied topically over the area among the injection sites of FCA a total of 6 times over a 2 week period. Animals were exposed to both UVA (10 Joules/cm^2) and UVB (0.1 Joules/cm^2) radiation following dosing. Control group animals were treated in the same manner but the selected vehicle (purified water) was used in place of the test or control items. Approximately 2 weeks after the final induction exposure, all animals were challenged by topical application of both the vehicle and the test or control item at 20% and 50% concentrations, respectively. These concentrations were selected as they were considered non-irritant to the skin in association with ultraviolet irradiation on the basis of the results obtained at the photoirritation test. Animals of the 2 test groups and the control group were exposed to both UVA (10 Joules/cm^2) and UVB (0.1 Joule/cm^2) radiation following dosing. Additional sites on each animal were topically treated with both the vehicle and test or control items, but treatment was not followed by exposure to ultraviolet irradiation. Approximately 24, 48 and 72 hours after challenge exposure the treated sites were examined for evidence of reaction to treatment.
One group of 5 animals (cf. Table 7, group 11) was induced with this substance at a concentration of 15% in acetone. A control group of 3 animals (cf. Table 7, group 10) was treated in the same manner with the vehicle alone (acetone). A concentration of 10% of the reference item (Musk Ambrette) in acetone was selected for the challenge. […]

[4] = test system: Balb/c 3T3 cells; type: cell-based; conditions: mouse
Method: The potential in vitro phototoxicity of the test item was evaluated by the measurements of neutral red uptake for cellular toxicity on cultures of Balb/c 3T3 cells treated with different doses of the test item and exposed to UVA irradiation. Test item solutions were prepared using Earle's Balanced Salt Solution (EBSS).
A preliminary dose-range finding experiment in the presence (+UVA) and in the absence (−UVA) of light was undertaken in order to select appropriate dose levels for the main assays. The test item was assayed at a maximum dose level of 1000 μg/ml (the upper limit indicated in the study protocol) and at a wide range of lower dose levels: 500, 250, 125, 62.5, 31.3, 15.6 and 7.81 μg/ml. […] In this case the chemical is considered to be non-phototoxic. The same dose range was used for the main assay.
A main experiment was performed using the following dose levels: 1000, 500, 250, 125, 62.5, 31.3, 15.6 and 7.81 μg/ml.

Structure (SMILES): COc1c2occc2cc2ccc(=O)oc12 [8-Methoxypsoralen]
- skin reaction ([1]; exposed to ultraviolet light, concentrations 0.01% and 0.1%): well defined to moderate erythema and a slight oedema
- skin reaction ([1]; without exposure to ultraviolet light): No response was seen
- cells bearing chromosomal aberrations (including or excluding gaps) [2]: Statistically significant increases

Structure (SMILES): COc1c(C(C)(C)C)cc([N+](=O)[O-])c(C)c1[N+](=O)[O-] [Musk Ambrette]
- response at challenge ([3]; group 10, induced with the vehicle): No response to the reference item was observed
- animals responding at challenge (very slight to slight erythema) ([3]; group 11 (induced at 15% in acetone), challenge at 10% followed by UV irradiation): 4/5
- response at challenge ([3]; group 11, sites treated but not irradiated): No response to the reference item was observed

Structure (SMILES): CN(C)CCCN1c2ccccc2Sc2ccc(Cl)cc21 [Chlorpromazine, reference compound]
- Photo Irritation Factor (PIF) [4]: 21.9
